Key:
[1] = tested on: human breast cancer cell BT-474; test: Inhibitory action on breast cancer cell BT-474 proliferation in vitro; assay type: cell-based; settings: 120 h, BT-474 cells, cultured 5 days, SRB staining
Method: A suspension of human breast cancer cell BT-474 (100 μl (6,000 cells)) were sown to a 96-well microplate and cultured in an incubator (37° C., 5% carbon dioxide). On the following day, 100 μl of a solution of each test compound, which was previously diluted 2-fold, was added, and the cells were cultured for 5 days. After the culture medium containing the test compound was removed, the cells were washed and fixed with 50% trichloroacetic acid, after which a 0.4% (w/v) SRB solution (dissolved in 1% acetic acid) was added to fix and stain the cell protein (Skehan et al., Journal of the National Cancer Institute, Vol. 82, pp. 1107-1112, 1990). After washing with a 1% acetic acid solution, 100 μl of an extract (10 mM Tris solution) was added to extract the pigment, and absorbance was measured at an absorption wavelength of 550 nm to quantify the amount of cells as protein content. Taking as 100% the protein content for the control group, which received no test compound solution, the ratio of the residual protein content for each treatment group was determined, and the compound concentration required to achieve 50% suppression of the residual cell content relative to the control (IC50 value) was calculated.

[2] = target: T1, EGF receptor intracellular domain protein (Homo sapiens, UniProt P00533); test: Determination of EGF receptor kinase inhibitory activity; assay type: biochemical; settings: 1.0 μM test compound; biotinyl-poly-Glu:Tyr (4:1), AlphaScreen, 25° C., 10 min; read-out: EGF receptor kinase Inhibitory rate (%) at 1.0 μM
T1 construct: encoding EGF receptor intracellular domain region, so that the protein contains an N-terminal Flag tag; made in house; host or cells: SF-21 insect cells, recombinant baculovirus BAC-EGFR
T1 sequence (P00533 669-1210 limits assumed): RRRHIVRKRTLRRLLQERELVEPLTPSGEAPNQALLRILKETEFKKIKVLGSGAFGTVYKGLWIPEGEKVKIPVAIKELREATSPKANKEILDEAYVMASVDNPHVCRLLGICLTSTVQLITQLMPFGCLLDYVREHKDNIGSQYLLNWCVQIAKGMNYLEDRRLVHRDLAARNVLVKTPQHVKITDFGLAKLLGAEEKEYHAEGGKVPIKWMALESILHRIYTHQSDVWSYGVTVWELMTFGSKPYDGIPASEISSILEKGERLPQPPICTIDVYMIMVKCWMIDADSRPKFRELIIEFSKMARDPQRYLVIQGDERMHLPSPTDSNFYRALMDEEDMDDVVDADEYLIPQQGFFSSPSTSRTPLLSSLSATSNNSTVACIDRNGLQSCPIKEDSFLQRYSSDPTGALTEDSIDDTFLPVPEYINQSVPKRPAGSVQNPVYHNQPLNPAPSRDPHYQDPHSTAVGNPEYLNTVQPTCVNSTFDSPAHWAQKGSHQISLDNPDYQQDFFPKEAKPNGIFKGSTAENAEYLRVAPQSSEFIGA
Method: Human EGF receptor gene was cloned by RT-PCR using total RNA prepared from A431 cells as a template. The primer for RT-PCR was prepared from nucleotide sequence (Genbank Accession XM—167493) information of EGF receptor gene by adding a nucleotide sequence encoding flag peptide and a restriction enzyme recognition sequence to a nucleotide sequence (2182-3810 of Genbank Accession XM—167493) encoding EGF receptor intracellular domain region, so that the protein contains an N-terminal Flag tag. The primer nucleotide sequence is shown below.
The RT reaction was conducted using SuperScript First-Strand Synthesis System for RT-PCR (Invitrogen) and the PCR reaction was conducted using a KOD-plus kit (TOYOBO). The obtained PCR product was electrophoresed on agarose gel (1%), the DNA fragment amplified by PCR was recovered from the gel, and then digested with restriction enzymes Sal I and Sph I. The DNA treated with the restriction enzymes was electrophoresed on agarose gel (1%), and the obtained DNA fragment was recovered and ligated to plasmid pFASTBAC1 (Invitrogen) digested with restriction enzymes Sal I and Sph I to give expression plasmid pFB-EGFR. The nucleotide sequence of insertion fragment was confirmed and found to be identical with the nucleotide sequence (2182-3810 of Genbank Accession XM—167493) of EGFR intracellular domain. Furthermore, using BAC-TO-BAC Baculovirus Expression System (Invitrogen), virus stock BAC-EGFR of recombinant baculovirus was prepared.
SF-21 cells were sown at 1×10^6 cells/mL to Sf-900II SFM medium (1 L, Invitrogen) containing 10% fetal bovine serum (trace), 50 mg/L gentamicin (Invitrogen) and 0.1% Pluronic F-68 (Invitrogen), and shaking culture was performed using a 2 L volume Erlenmeyer flask at 27° C., 100 rpm. After culturing for 24 hrs, recombinant baculovirus BAC-EGFR (13.4 mL) was added, and the mixture was further cultured for 3 days. The culture medium was centrifuged at 2,000 rpm for 5 min. to give virus-infected cells. The infected cells were washed with a phosphate buffered saline (Invitrogen), centrifuged under the same conditions, and the cells were preserved at −80° C. The cryopreserved cells were thawed in ice, suspended in buffer A (50 mM Tris buffer (30 mL, pH7.4) containing 20% glycerol, 0.15 M NaCl) supplemented with Complete Protease Inhibitor (Boehringer), and ruptured 3 times with a Polytron homogenizer (Kinematica) at 20,000 rpm for 30 sec. The ruptured medium was clarified by centrifugation at 40,000 rpm for 30 min. and filtered with a 0.45 μm filter. The filtrate was passed through a column packed with Anti-FLAG M2 Affinity Gel (4 mL, Sigma) at a flow rate of about 0.5 mL/min. The column was washed with buffer A, and eluted with buffer A containing 100 μg/mL of FLAG peptide. The eluate was concentrated with Vivaspin 20 (Vivascience) having a molecular weight cut off of 30K. The buffer of this concentrate was exchanged using NAPE 25 column (Amersham Bioscience) equilibrated with buffer A. The fractions containing EGF receptor intracellular domain protein were collected, glycerol was added to the final concentration of 50% and cryopreserved at −80° C.
A test compound dissolved in dimethyl sulfoxide (DMSO) was diluted with a buffer (50 mM Tris-HCl (pH 7.5), 5 mM MgCl2, 5 mM MnCl2, 2 mM dithiothreitol, 0.01% Tween-20). To this compound solution (5 μL) was added a buffer (10 μL) containing 250 ng/mL of EGF receptor intracellular domain protein and 250 ng/mL of biotin labeled polypeptide biotinyl-poly-Glu:Tyr (4:1) (CIS bio International). […]

## CC(C)(C)S(=O)(=O)CCOCCn1ccc2ncnc(Nc3ccc(Oc4cccc(C(F)(F)F)c4)c(Cl)c3)c21 [Example 176, 5-{2-[2-(tert-butylsulfonyl)ethoxy]ethyl}-N-{3-chloro-4-[3-(trifluoromethyl)phenoxy]phenyl}-5H-pyrrolo[3,2-d]pyrimidin-4-amine]
[1]
  IC50: < 100 nM

## CN(C)C/C=C/C(=O)NC/C=C/c1cc2ncnc(Nc3ccc(OCc4cccc(F)c4)c(Cl)c3)c2[nH]1 [Example 92, (2E)-N-{(2E)-3-[4-({3-chloro-4-[(3-fluorobenzyl)oxy]phenyl}amino)-5H-pyrrolo[3,2-d]pyrimidin-6-yl]prop-2-enyl}-4-(dimethylamino)but-2-enamide]
[2]
  inhibition at 1 µM: 98%
[1]
  IC50: < 100 nM

## CC(C)(C(=O)NCCn1ccc2ncnc(Nc3ccc(Oc4cccc(C(F)(F)F)c4)c(Cl)c3)c21)S(C)(=O)=O [Example 169, N-{2-[4-({3-chloro-4-[3-(trifluoromethyl)phenoxy]phenyl}amino)-5H-pyrrolo[3,2-d]pyrimidin-5-yl]ethyl}-2-methyl-2-(methylsulfonyl)propanamide]
[1]
  IC50: < 100 nM
